24 compounds from patent publication US10464911B2, “1,3,4-oxadiazole sulfamide derivative compounds as histone deacetylase 6 inhibitor, and the pharmaceutical composition comprising the same” (Chong Kun Dang Pharmaceutical Corp., priority 2015, dated 2019) can be followed below.

For this test, the target named is human recombinant HDAC6 (Homo sapiens (Human), UniProt Q9UBN7). As to the kind of experiment: HDAC6 enzyme activity inhibition assay (HDAC Fluorimetric Drug Discovery Kit). The format is biochemical. The note with it: for HDAC6 selectivity (fold): HDAC6 versus HDAC1; for IC50: human recombinant HDAC6, same protocol as HDAC1 test. How it is done: In order to examine the HDAC6 selectivity of the compounds of formula I of the present invention by HDAC1 and HDAC6 enzymatic activity inhibition assays, an experiment was performed using a conventional substance as a control.
HDAC enzyme activity was measured using a HDAC Fluorimetric Drug Discovery Kit (BML-AK511, 516, Enzo Life Science). For the HDAC1 enzyme activity test, human recombinant HDAC1 (BML-SE456) was used as an enzyme source, and Fluor de Lys®-“SIRT1 (BNL-KI177) was used as a substrate. A 5-fold dilution of the compound was seeded into a 96-well plate, and then 0.3 μg of the enzyme and 10 μM of the substrate were added to each well of the plate and allowed to react at 30 for 60 minutes. Then, Fluor de Lys®-Developer II (BML-KI176) was added thereto and allowed to react for 30 minutes, after which the fluorescence value (Ex 360, Em 460) was measured using a multi-plate reader (Flexstation 3, Molecular Device). The HDAC6 enzyme was tested using human recombinant HDAC6 (382180) (Calbiochem) according to the same protocol as the HDAC1 enzyme activity test method. Based on the resulting values, each IC50 value was calculated using GraphPad Prism4.0 program.

human recombinant HDAC6, sequence (Q9UBN7 whole entry): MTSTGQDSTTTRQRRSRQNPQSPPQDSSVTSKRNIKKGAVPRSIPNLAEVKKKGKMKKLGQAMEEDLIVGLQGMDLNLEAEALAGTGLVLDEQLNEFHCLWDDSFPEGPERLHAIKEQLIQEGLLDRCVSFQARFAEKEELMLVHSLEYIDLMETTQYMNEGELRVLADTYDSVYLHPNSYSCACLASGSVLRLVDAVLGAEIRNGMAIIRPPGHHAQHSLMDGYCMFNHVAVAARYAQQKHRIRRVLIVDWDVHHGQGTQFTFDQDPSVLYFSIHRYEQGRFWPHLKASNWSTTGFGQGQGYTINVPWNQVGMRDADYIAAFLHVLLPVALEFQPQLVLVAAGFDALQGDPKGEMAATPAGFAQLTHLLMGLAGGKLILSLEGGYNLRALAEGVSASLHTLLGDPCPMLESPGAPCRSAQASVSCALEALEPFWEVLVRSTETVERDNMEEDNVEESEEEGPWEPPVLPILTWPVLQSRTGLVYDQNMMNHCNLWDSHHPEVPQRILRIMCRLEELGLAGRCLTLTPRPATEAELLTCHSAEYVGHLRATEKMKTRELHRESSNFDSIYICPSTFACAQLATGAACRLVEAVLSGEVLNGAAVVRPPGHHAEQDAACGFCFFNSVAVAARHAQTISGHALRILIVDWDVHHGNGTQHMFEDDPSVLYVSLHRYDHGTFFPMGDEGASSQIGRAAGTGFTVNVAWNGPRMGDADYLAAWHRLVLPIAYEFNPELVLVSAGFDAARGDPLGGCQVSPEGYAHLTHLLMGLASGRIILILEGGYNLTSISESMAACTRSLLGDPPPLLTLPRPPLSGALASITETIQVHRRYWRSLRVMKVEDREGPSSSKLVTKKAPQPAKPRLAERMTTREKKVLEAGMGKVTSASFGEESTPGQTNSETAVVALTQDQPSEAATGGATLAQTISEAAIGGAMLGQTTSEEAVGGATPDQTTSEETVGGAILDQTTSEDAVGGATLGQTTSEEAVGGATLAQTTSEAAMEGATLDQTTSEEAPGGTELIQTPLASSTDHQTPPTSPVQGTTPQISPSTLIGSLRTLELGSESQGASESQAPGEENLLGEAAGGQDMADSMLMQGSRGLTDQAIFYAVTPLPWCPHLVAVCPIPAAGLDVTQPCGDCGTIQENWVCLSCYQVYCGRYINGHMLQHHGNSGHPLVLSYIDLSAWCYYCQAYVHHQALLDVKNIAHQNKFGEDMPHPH

Regarding `O=S(=O)(N1CCOCC1)N(Cc1ccc(-c2nnc(C(F)(F)F)o2)cc1)c1ccc(F)cc1` [Compound 11198, N-(4-fluorophenyl)-N-(4-(5-(trifluoromethyl)-1,3,4-oxadiazol-2-yl)benzyl)morpholine-4-sulfonamide], the “HDAC6 selectivity (fold)” value is recorded as 738 fold and the IC50 was 136 nM.
The corresponding values for `O=S(=O)(N1CCOCC1)N(Cc1ccc(-c2nnc(C(F)F)o2)cc1)c1ccc(F)cc1` [Compound 11199, N-(4-(5-(difluoromethyl)-1,3,4-oxadiazol-2-yl)benzyl)-N-(4-fluorophenyl)morpholine-4-sulfonamide] are 1911 fold and 52 nM.
With `CC(=O)N1CCN(S(=O)(=O)N(Cc2ccc(-c3nnc(C(F)(F)F)o3)cc2F)c2ccccc2)CC1` [Compound 11294, 4-acetyl-N-(2-fluoro-4-(5-(trifluoromethyl)-1,3,4-oxadiazol-2-yl)benzyl)-N-phenylpiperazine-1-sulfonamide], the “HDAC6 selectivity (fold)” value was determined as 1411 fold and the IC50 worked out at 71 nM.
The corresponding values for `CCC(=O)N1CCN(S(=O)(=O)N(Cc2ccc(-c3nnc(C(F)(F)F)o3)cc2F)c2ccccc2)CC1` [Compound 11295, N-(2-fluoro-4-(5-(trifluoromethyl)-1,3,4-oxadiazol-2-yl)benzyl)-N-phenyl-4-propionylpiperazine-1-sulfonamide] are 751 fold and 133 nM.
As to `CC(C)C(=O)N1CCN(S(=O)(=O)N(Cc2ccc(-c3nnc(C(F)(F)F)o3)cc2F)c2ccccc2)CC1` [Compound 11296, N-(2-fluoro-4-(5-(trifluoromethyl)-1,3,4-oxadiazol-2-yl)benzyl)-4-isobutyryl-N-phenylpiperazine-1-sulfonamide], the “HDAC6 selectivity (fold)” value worked out at 636 fold and the IC50 was found to be 157 nM.
For `CS(=O)(=O)N1CCN(S(=O)(=O)N(Cc2ccc(-c3nnc(C(F)(F)F)o3)cc2F)c2ccccc2)CC1` [Compound 11297, N-(2-fluoro-4-(5-(trifluoromethyl)-1,3,4-oxadiazol-2-yl)benzyl)-4-(methylsulfonyl)-N-phenylpiperazine-1-sulfonamide], the “HDAC6 selectivity (fold)” value is 805 fold and the IC50 worked out at 124 nM.
The corresponding values for `CN1CCN(S(=O)(=O)N(Cc2ccc(-c3nnc(C(F)(F)F)o3)cc2F)c2ccccc2)CC1` [Compound 11298, N-(2-fluoro-4-(5-(trifluoromethyl)-1,3,4-oxadiazol-2-yl)benzyl)-4-methyl-N-phenylpiperazine-1-sulfonamide] are 1333 fold and 75 nM.
Regarding `CCN1CCN(S(=O)(=O)N(Cc2ccc(-c3nnc(C(F)(F)F)o3)cc2F)c2ccccc2)CC1` [Compound 11299, 4-ethyl-N-(2-fluoro-4-(5-(trifluoromethyl)-1,3,4-oxadiazol-2-yl)benzyl)-N-phenylpiperazine-1-sulfonamide], the “HDAC6 selectivity (fold)” value is reported as 1169 fold and the 50% inhibitory concentration (IC50) was found to be 86 nM.
The corresponding values for `CC(C)N1CCN(S(=O)(=O)N(Cc2ccc(-c3nnc(C(F)(F)F)o3)cc2F)c2ccccc2)CC1` [Compound 11300, N-(2-fluoro-4-(5-(trifluoromethyl)-1,3,4-oxadiazol-2-yl)benzyl)-4-isopropyl-N-phenylpiperazine-1-sulfonamide] are 861 fold and 116 nM.
On the same counts, the results for `Cl.O=S(=O)(N1CCNCC1)N(Cc1ccc(-c2nnc(C(F)F)o2)cc1F)c1ccccc1` [Compound 11301, N-(4-(5-(difluoromethyl)-1,3,4-oxadiazol-2-yl)-2-fluorobenzyl)-N-phenylpiperazine-1-sulfonamide Hydrochloride] are 3622 fold and 28 nM.
With `CC(=O)N1CCN(S(=O)(=O)N(Cc2ccc(-c3nnc(C(F)F)o3)cc2F)c2ccccc2)CC1` [Compound 11302, 4-acetyl-N-(4-(5-(difluoromethyl)-1,3,4-oxadiazol-2-yl)-2-fluorobenzyl)-N-phenylpiperazine-1-sulfonamide], the “HDAC6 selectivity (fold)” value is recorded as 3174 fold and the IC50 was 32 nM.
Take `CCC(=O)N1CCN(S(=O)(=O)N(Cc2ccc(-c3nnc(C(F)F)o3)cc2F)c2ccccc2)CC1` [Compound 11303, N-(4-(5-(difluoromethyl)-1,3,4-oxadiazol-2-yl)-2-fluorobenzyl)-N-phenyl-4-propionylpiperazine-1-sulfonamide]: the “HDAC6 selectivity (fold)” value stood at 3187 fold and the IC50 was found to be 31 nM.
The corresponding values for `CC(C)C(=O)N1CCN(S(=O)(=O)N(Cc2ccc(-c3nnc(C(F)F)o3)cc2F)c2ccccc2)CC1` [Compound 11304, N-(4-(5-(difluoromethyl)-1,3,4-oxadiazol-2-yl)-2-fluorobenzyl)-4-isobutyryl-N-phenylpiperazine-1-sulfonamide] are 1912 fold and 52 nM.
In the case of `CS(=O)(=O)N1CCN(S(=O)(=O)N(Cc2ccc(-c3nnc(C(F)F)o3)cc2F)c2ccccc2)CC1` [Compound 11305, N-(4-(5-(difluoromethyl)-1,3,4-oxadiazol-2-yl)-2-fluorobenzyl)-4-(methylsulfonyl)-N-phenylpiperazine-1-sulfonamide], the “HDAC6 selectivity (fold)” value is recorded as 2620 fold and the IC50 amounted to 38 nM.
On to `CN1CCN(S(=O)(=O)N(Cc2ccc(-c3nnc(C(F)F)o3)cc2F)c2ccccc2)CC1` [Compound 11306, N-(4-(5-(difluoromethyl)-1,3,4-oxadiazol-2-yl)-2-fluorobenzyl)-4-methyl-N-phenylpiperazine-1-sulfonamide], for which the “HDAC6 selectivity (fold)” value is on record as 4363 fold and the IC50 stood at 23 nM.
For the compound `CCN1CCN(S(=O)(=O)N(Cc2ccc(-c3nnc(C(F)F)o3)cc2F)c2ccccc2)CC1` [Compound 11307, N-(4-(5-(difluoromethyl)-1,3,4-oxadiazol-2-yl)-2-fluorobenzyl)-4-ethyl-N-phenylpiperazine-1-sulfonamide], the “HDAC6 selectivity (fold)” value is 2366 fold and the IC50 was found to be 42 nM.
On to `CC(C)N1CCN(S(=O)(=O)N(Cc2ccc(-c3nnc(C(F)F)o3)cc2F)c2ccccc2)CC1` [Compound 11308, N-(4-(5-(difluoromethyl)-1,3,4-oxadiazol-2-yl)-2-fluorobenzyl)-4-isopropyl-N-phenylpiperazine-1-sulfonamide], for which the “HDAC6 selectivity (fold)” value is on record as 2168 fold and the concentration for half-maximal inhibition (IC50) came out at 46 nM.
On to `CS(=O)(=O)N1CCN(S(=O)(=O)N(Cc2ccc(-c3nnc(C(F)(F)F)o3)cc2F)c2cccc(F)c2)CC1` [Compound 11310, N-(2-fluoro-4-(5-(trifluoromethyl)-1,3,4-oxadiazol-2-yl)benzyl)-N-(3-fluorophenyl)-4-(methylsulfonyl)piperazine-1-sulfonamide], for which the “HDAC6 selectivity (fold)” value came out at 1311 fold and the IC50 turned out to be 76 nM.
As for `CC(=O)N1CCN(S(=O)(=O)N(Cc2ccc(-c3nnc(C(F)(F)F)o3)cc2F)c2cccc(F)c2)CC1` [Compound 11311, 4-acetyl-N-(2-fluoro-4-(5-(trifluoromethyl)-1,3,4-oxadiazol-2-yl)benzyl)-N-(3-fluorophenyl)piperazine-1-sulfonamide], the “HDAC6 selectivity (fold)” value came to 1188 fold and the IC50 is 84 nM.
For the compound `CN1CCN(S(=O)(=O)N(Cc2ccc(-c3nnc(C(F)(F)F)o3)cc2F)c2cccc(F)c2)CC1` [Compound 11312, N-(2-fluoro-4-(5-(trifluoromethyl)-1,3,4-oxadiazol-2-yl)benzyl)-N-(3-fluorophenyl)-4-methylpiperazine-1-sulfonamide], the “HDAC6 selectivity (fold)” value came out at 1371 fold and the IC50 amounted to 73 nM.
For `Cl.O=S(=O)(N1CCNCC1)N(Cc1ccc(-c2nnc(C(F)F)o2)cc1F)c1cccc(F)c1` [Compound 11313, N-(4-(5-(difluoromethyl)-1,3,4-oxadiazol-2-yl)-2-fluorobenzyl)-N-(3-fluorophenyl)piperazine-1-sulfonamide Hydrochloride], the “HDAC6 selectivity (fold)” value amounted to 4246 fold and the IC50 is 24 nM.
On the same counts, the results for `CS(=O)(=O)N1CCN(S(=O)(=O)N(Cc2ccc(-c3nnc(C(F)F)o3)cc2F)c2cccc(F)c2)CC1` [Compound 11314, N-(4-(5-(difluoromethyl)-1,3,4-oxadiazol-2-yl)-2-fluorobenzyl)-N-(3-fluorophenyl)-4-(methylsulfonyl)piperazine-1-sulfonamide] are 3061 fold and 33 nM.
Turning to `CC(=O)N1CCN(S(=O)(=O)N(Cc2ccc(-c3nnc(C(F)F)o3)cc2F)c2cccc(F)c2)CC1` [Compound 11315, 4-acetyl-N-(4-(5-(difluoromethyl)-1,3,4-oxadiazol-2-yl)-2-fluorobenzyl)-N-(3-fluorophenyl)piperazine-1-sulfonamide], the “HDAC6 selectivity (fold)” value is 3367 fold and the IC50 was found to be 30 nM.
Regarding `CN1CCN(S(=O)(=O)N(Cc2ccc(-c3nnc(C(F)F)o3)cc2F)c2cccc(F)c2)CC1` [Compound 11316, N-(4-(5-(difluoromethyl)-1,3,4-oxadiazol-2-yl)-2-fluorobenzyl)-N-(3-fluorophenyl)-4-methylpiperazine-1-sulfonamide], the “HDAC6 selectivity (fold)” value is listed as 4031 fold and the IC50 was found to be 25 nM.

As a reminder, the IC50 is the concentration needed to halve the response being measured.
